# US12171766B2, “Methods of treating patients suffering from brain injury and methods of increasing the value of the extended Glasgow Outcome Scale of patients suffering from brain injury” (VERINOS OPERATIONS GMBH, priority 2021, dated 2024)
# Assay: NOSTRA phase III trial: exposure control (pharmacokinetics), samples after end of infusion and 12 hours after end of infusion
# Format: in vivo, human
# Details: TBI patients
# Description: An exposure control was performed with samples collected after end of infusion and 12 hours after end of infusion. Due to the high sensibility of Ronopterin to oxidation, no utilizable values could be obtained for Ronopterin and, therefore, the first metabolite, 4-amino-dihydrobiopterin, was used as a surrogate. The mean absolute concentration for the first metabolite of Ronopterin was 1071 ng/mL at the end of the infusion and 476 ng/mL 12 hours later (56% elimination). The mean absolute value for the second Ronopterin metabolite was 52 ng/mL at the end of the infusion and 37 ng/mL 12 hours after end of infusion.
# [1] = Ronopterin 17 mg/kg infused for 48 hours
smiles,measurement,setting,value
C[C@H](O)[C@H](O)C1=Nc2c(N)nc(N)nc2NC1 [4-amino-dihydrobiopterin],elimination within 12 hours after end of infusion,,56%
same,mean absolute concentration 12 hours after end of infusion,[1],476 ng/mL
same,mean absolute concentration at the end of the infusion,[1],1071 ng/mL
